Several values for one entry are separate records, joined by “and”; a condition that tells them apart may be missing. Equal values may be shown once.
Tests used:
A549 cells = assay: Proliferation Assay (A549 viability, Cell Titer Fluor, 72 hours); type: cell-based; settings: Homo sapiens
Outline: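 Cell Titer Fluor fluorescence after 72 h compound treatment (0.5% DMSO, 37 °C, 5% CO2) of A549 cells plated 24 h earlier at 1000/well. Four-parameter logistic fitting gave IC50.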

[1] = biological target: purified recombinant human GAC (GLS1) (Homo sapiens (Human), UniProt O94925); assay: GLS1 Enzymatic Activity Assay (dual-coupled enzymatic assay, resorufin/Amplex UltraRed readout); type: biochemical;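 further: glutamate from GAC coupled via glutamate oxidase and peroxidase to resorufin, read as fluorescence (ex 530, em 590 nm) kinetically or at 20 min, four-parameter logistic IC50 fit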
Sequence of purified recombinant human GAC (GLS1) (O94925 other isoform, or with tags, fused parts or gaps): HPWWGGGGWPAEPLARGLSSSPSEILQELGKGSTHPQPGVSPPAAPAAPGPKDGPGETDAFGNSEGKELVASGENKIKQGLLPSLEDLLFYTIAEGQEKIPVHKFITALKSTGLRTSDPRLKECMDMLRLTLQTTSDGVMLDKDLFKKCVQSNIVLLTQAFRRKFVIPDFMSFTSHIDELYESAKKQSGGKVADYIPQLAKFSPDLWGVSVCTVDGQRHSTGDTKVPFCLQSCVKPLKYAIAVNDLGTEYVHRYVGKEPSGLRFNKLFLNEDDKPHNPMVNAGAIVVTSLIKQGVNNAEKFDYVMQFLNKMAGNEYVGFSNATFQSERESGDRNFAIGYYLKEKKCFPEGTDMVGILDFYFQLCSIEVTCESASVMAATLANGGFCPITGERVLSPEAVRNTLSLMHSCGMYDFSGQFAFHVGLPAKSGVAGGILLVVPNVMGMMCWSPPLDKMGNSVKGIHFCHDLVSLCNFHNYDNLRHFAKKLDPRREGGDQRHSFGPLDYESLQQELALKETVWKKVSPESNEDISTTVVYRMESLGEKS

Row | Compound | EC50 (A549 cells; A549, 72 h) [nM] | IC50 [1] | EC50 (A549 cells) [nM]
1 | O=C(Cc1ccccn1)Nc1nnc(CC[C@@H](F)Cn2cc(C(=O)NCc3ccc(C(F)(F)F)cn3)nn2)s1 [Example 201, (R)-1-(2-fluoro-4-(5-(2-(pyridin-2-yl)acetamido)-1,3,4-thiadiazol-2-yl)butyl)-N-((5-(trifluoromethyl)pyridin-2-yl)methyl)-1H-1,2,3-triazole-4-carboxamide] | 100 to 500 | < 100 nM | –
2 | O=C(Cc1cccc(OC(F)(F)F)c1)Nc1ccc(CCCCc2nnc(C(=O)NCc3ccccn3)s2)nn1 [Example 32, N-(pyridin-2-ylmethyl)-5-[4-(6-{2-[3-(trifluoromethoxy)phenyl]acetamido}pyridazin-3-yl)butyl]-1,3,4-thiadiazole-2-carboxamide] | < 100 | < 100 nM | –
3 | CNC(=O)c1cn(CCC(F)Cn2cc(C(=O)NCc3cncc(C4CC4)c3)nn2)nn1 (stereo not shown) [Example 164, 1-[4-(4-{[(5-cyclopropylpyridin-3-yl)methyl]carbamoyl}-1H-1,2,3-triazol-1-yl)-3-fluorobutyl]-N-methyl-1H-1,2,3-triazole-4-carboxamide] | 100 to 500 | < 100 nM | –
4 | CNC(=O)c1cn(CCC(F)Cn2cc(C(=O)NCc3ccc(C(F)(F)F)cn3)nn2)nn1 (stereo not shown) [Example 184, 1-{3-fluoro-4-[4-({[5-(trifluoromethyl)pyridin-2-yl]methyl}carbamoyl)-1H-1,2,3-triazol-1-yl]butyl}-N-methyl-1H-1,2,3-triazole-4-carboxamide] | > 5000 | 500 to 5000 nM | –
5 | O=C(Cc1cccc(OC(F)(F)F)c1)Nc1ccc(CCCCc2nnc(C(=O)NCCO)s2)nn1 [Example 37, N-(2-hydroxyethyl)-5-[4-(6-{2-[3-(trifluoromethoxy)phenyl]acetamido}pyridazin-3-yl)butyl]-1,3,4-thiadiazole-2-carboxamide] | < 100 | < 100 nM | –
6 | O=C(NCc1ccccc1)c1nnc(CCCCc2ccc(NC(=O)[C@@H](O)c3ccccc3)nn2)s1 [Example 29, N-benzyl-5-(4-{6-[(2S)-2-hydroxy-2-phenylacetamido]pyridazin-3-yl}butyl)-1,3,4-thiadiazole-2-carboxamide] | < 100 | < 100 nM | –
7 | O=C(NCc1cncc(C(F)(F)F)c1)c1cn(CCCCn2cc(C(=O)NCc3cc(C4CC4)ccn3)nn2)nn1 [Example 135, 1-[4-(4-{[(4-cyclopropylpyridin-2-yl)methyl]carbamoyl}-1H-1,2,3-triazol-1-yl)butyl]-N-{[5-(trifluoromethyl)pyridin-3-yl]methyl}-1H-1,2,3-triazole-4-carboxamide] | < 100 | < 100 nM | –
8 | CNC(=O)c1cn(CC(F)CCc2ccc(NC(=O)Cc3cc(OCC(F)(F)F)ccn3)nn2)nn1 (stereo not shown) [Example 262, 1-(2-Fluoro-4-(6-(2-(4-(2,2,2-trifluoroethoxy)pyridin-2-yl)acetamido)pyridazin-3-yl)butyl)-N-methyl-1H-1,2,3-triazole-4-carboxamide] | – | < 100 nM | < 100
9 | Cc1ccc(CNC(=O)c2cn(CCCCc3nnc(C(=O)NCc4ccc(C)nc4)s3)nn2)cn1 [Example 64, N-[(6-methylpyridin-3-yl)methyl]-5-[4-(4-{[(6-methylpyridin-3-yl)methyl]carbamoyl}-1H-1,2,3-triazol-1-yl)butyl]-1,3,4-thiadiazole-2-carboxamide] | 500 to 5000 | < 100 nM | –
10 | O=C(NCc1cccc(OC(F)(F)F)c1)c1cn(CCCCc2nnc(C(=O)NCc3cccc(OC(F)(F)F)c3)s2)nn1 [Example 46, N-{[3-(trifluoromethoxy)phenyl]methyl}-5-{4-[4-({[3-(trifluoromethoxy)phenyl]methyl}carbamoyl)-1H-1,2,3-triazol-1-yl]butyl}-1,3,4-thiadiazole-2-carboxamide] | < 100 | < 100 nM | –
11 | CC(C)(O)CNC(=O)c1nnc(CCCCc2ccc(NC(=O)Cc3cccc(OC(F)(F)F)c3)nn2)s1 [Example 34, N-(2-hydroxy-2-methylpropyl)-5-[4-(6-{2-[3-(trifluoromethoxy)phenyl]acetamido}pyridazin-3-yl)butyl]-1,3,4-thiadiazole-2-carboxamide] | 100 to 500 | < 100 nM and 100 to 500 nM | –

Further lines, with some results ahead:

Row | EC50 (A549 cells; A549, 72 h) [nM] | IC50 [1] | Compound | EC50 (A549 cells) [nM]
12 | < 100 | < 100 nM | O=C(NCc1cc(OC(F)(F)F)ccc1F)c1cn(CCC(F)Cn2cc(C(=O)NCc3cc(C(F)(F)F)ccn3)nn2)nn1 (stereo not shown) [Example 426, 1-{2-fluoro-4-[4-({[2-fluoro-5-(trifluoromethoxy)phenyl]methyl}carbamoyl)-1H-1,2,3-triazol-1-yl]butyl}-N-{[4-(trifluoromethyl)pyridin-2-yl]methyl}-1H-1,2,3-triazole-4-carboxamide] | –
13 | < 100 | < 100 nM | CNC(=O)c1cn(C[C@H](F)CCc2ccc(NC(=O)Cc3cc(C(F)(F)C4CC4)ccn3)nn2)nn1 [Example 267, (R)-1-(4-(6-(2-(4-(cyclopropyldifluoromethyl)pyridin-2-yl)acetamido)pyridazin-3-yl)-2-fluorobutyl)-N-methyl-1H-1,2,3-triazole-4-carboxamide] | –
14 | < 100 | < 100 nM | O=C(Cc1cc(OC(F)(F)F)ccc1F)Nc1cn(CCC(F)Cn2cc(C(=O)NCc3cccc(OC(F)(F)F)c3)nn2)nn1 (stereo not shown) [Example 416, 1-[2-fluoro-4-(4-{2-[2-fluoro-5-(trifluoromethoxy)phenyl]acetamido}-1H-1,2,3-triazol-1-yl)butyl]-N-{[3-(trifluoromethoxy)phenyl]methyl}-1H-1,2,3-triazole-4-carboxamide] | –
15 | 500 to 5000 | 100 to 500 nM | O=C(NCCC(F)(F)F)c1cn(CC(F)CCc2nnc(C(=O)NCc3cc(C(F)(F)F)ccn3)s2)nn1 (stereo not shown) [Example 510, 5-(3-fluoro-4-{4-[(3,3,3-trifluoropropyl)carbamoyl]-1H-1,2,3-triazol-1-yl}butyl)-N-{[4-(trifluoromethyl)pyridin-2-yl]methyl}-1,3,4-thiadiazole-2-carboxamide] | –
16 | < 100 | < 100 nM | O=C(NCc1cc(OC(F)(F)F)ccc1F)c1cn(CC(F)CCc2nnc(C(=O)NCc3cc(C(F)(F)F)ccn3)s2)nn1 (stereo not shown) [Example 451, 5-{3-fluoro-4-[4-({[2-fluoro-5-(trifluoromethoxy)phenyl]methyl}carbamoyl)-1H-1,2,3-triazol-1-yl]butyl}-N-{[4-(trifluoromethyl)pyridin-2-yl]methyl}-1,3,4-thiadiazole-2-carboxamide] | –
17 | 100 to 500 | < 100 nM | CNC(=O)c1cn(CCCCc2ccc(NC(=O)Cc3cccc(N(C)C)c3)nn2)nn1 [Example 237, 1-(4-(6-(2-(3-(dimethylamino)phenyl)acetamido)pyridazin-3-yl)butyl)-N-methyl-1H-1,2,3-triazole-4-carboxamide] | –
18 | < 100 | < 100 nM | O=C(CC1CCCCC1)Nc1cn(CCCCn2cc(C(=O)NCc3cccc(OC(F)(F)F)c3)nn2)nn1 [Example 296, 1-{4-[4-(2-cyclohexylacetamido)-1H-1,2,3-triazol-1-yl]butyl}-N-{[3-(trifluoromethoxy)phenyl]methyl}-1H-1,2,3-triazole-4-carboxamide] | –
19 | 500 to 5000 | 100 to 500 nM | CNC(=O)c1cn(CCCCc2ccc(NC(=O)CN3CCC(c4ccccc4)CC3)nn2)nn1 [Example 215, N-methyl-1-(4-(6-(2-(4-phenylpiperidin-1-yl)acetamido)pyridazin-3-yl)butyl)-1H-1,2,3-triazole-4-carboxamide] | –
20 | < 100 | < 100 nM | O=C(Cc1cc(-c2cccc(OC(F)(F)F)c2)ccn1)Nc1ccc(CCCCn2cc(C(=O)NCCO)nn2)nn1 [Example 246, N-(2-hydroxyethyl)-1-(4-(6-(2-(4-(3-(trifluoromethoxy)phenyl)pyridin-2-yl)acetamido)pyridazin-3-yl)butyl)-1H-1,2,3-triazole-4-carboxamide] | –
21 | < 100 | < 100 nM | O=C(Cc1ccccn1)Nc1nnc(CCCCn2cc(C(=O)NCc3cc(OC(F)(F)F)ccc3F)nn2)s1 [Example 554, N-{[2-fluoro-5-(trifluoromethoxy)phenyl]methyl}-1-(4-{5-[2-(pyridin-2-yl)acetamido]-1,3,4-thiadiazol-2-yl}butyl)-1H-1,2,3-triazole-4-carboxamide] | –
22 | < 100 | < 100 nM | COc1ncccc1CNC(=O)c1cn(CC(F)CCc2nnc(NC(=O)Cc3cc(OC(F)(F)F)ccc3F)s2)nn1 (stereo not shown) [Example 223, 1-(2-fluoro-4-(5-(2-(2-fluoro-5-(trifluoromethoxy)phenyl)acetamido)-1,3,4-thiadiazol-2-yl)butyl)-N-((2-methoxypyridin-3-yl)methyl)-1H-1,2,3-triazole-4-carboxamide] | –
23 | 500 to 5000 | < 100 nM | NC(=O)c1cn(CC(F)CCc2nnc(NC(=O)Cc3cccc(OC(F)(F)F)c3)s2)nn1 (stereo not shown) [Example 530, 1-[2-fluoro-4-(5-{2-[3-(trifluoromethoxy)phenyl]acetamido}-1,3,4-thiadiazol-2-yl)butyl]-1H-1,2,3-triazole-4-carboxamide] | –
24 | 100 to 500 | < 100 nM | CNC(=O)c1nnc(CCCCc2ccc(NC(=O)Cc3cccc(OC(F)(F)F)c3)nn2)s1 [Example 572, N-methyl-5-(4-(6-(2-(3-(trifluoromethoxy)phenyl)acetamido)pyridazin-3-yl)butyl)-1,3,4-thiadiazole-2-carboxamide] | –
25 | < 100 | < 100 nM | CNC(=O)c1cn(CC(F)CCc2nnc(NC(=O)Cc3cc(C4CCOCC4)ccn3)s2)nn1 (stereo not shown) [Example 265, 1-(2-fluoro-4-(5-(2-(4-(tetrahydro-2H-pyran-4-yl)pyridin-2-yl)acetamido)-1,3,4-thiadiazol-2-yl)butyl)-N-methyl-1H-1,2,3-triazole-4-carboxamide] | –
26 | > 5000 | 100 to 500 nM | Cc1ccc(CC(=O)Nc2cn(CC(F)CCn3cc(C(=O)NCc4ccccn4)nn3)nn2)cn1 (stereo not shown) [Example 344, 1-(3-fluoro-4-{4-[2-(6-methylpyridin-3-yl)acetamido]-1H-1,2,3-triazol-1-yl}butyl)-N-(pyridin-2-ylmethyl)-1H-1,2,3-triazole-4-carboxamide] | –

— patent US10344025B2, “GLS1 inhibitors for treating disease” (Board of Regents, The University of Texas System, priority 2014, dated 2019)
